Measurements reported in patent publication US20210188843A1, “QUINOLINE COMPOUNDS AND THEIR PREPARATION AND USE AS ANTIMALARIAL AGENTS” (The United States of America,as represented by the …, priority 2018, published 2021).
Values after ≈ are worked out from the molar mass of the structure shown.

Key:
[1] = system: Asexual parasites of P. falciparum strain 3D7; assay: In vitro drug activity on asexual parasites (SYBR Green assay); type: cell-based; details: Plasmodium falciparum; Table 1; P. falciparum 3D7 asexual stage, 72 h; read-out: Asexual EC50
In short: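 Growth was measured by SYBR Green I fluorescence (excitation 490 nm, emission 520 nm) after freeze-thaw lysis and 30 min staining at room temperature. Parasites (0.5% parasitemia, 2% hematocrit) had been incubated 72 h with compound, DMSO below 0.5%. Conditions were run in duplicate with no-drug and RBC-alone controls.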

PAMPA permeability = type: in vitro ADME; details: Table 1
[2] = Microsomal stability (rat); type: in vitro ADME; details: rat microsomes, Table 1, read-out: Microsomal Stability (rat) T1/2
Solubility pH 7.4 = type: physicochemical; details: aqueous buffer, Table 1

| EC50 [1] [µM] | Papp (PAMPA permeability) [×10⁻⁶ cm/s] | half-life [2] [min] | solubility (Solubility pH 7.4) [µg/mL] | SMILES |
| --- | --- | --- | --- | --- |
| 12.7 | 4.6 | > 30 | > 48 | CC(=O)N1CCN([C@H]2C[C@H](n3c(=N)n(C)c4cnc5ccc(-c6ccc(Cl)cc6)cc5c43)C2)CC1 [Compound 129, 1-(4-((1r,3r)-3-(8-(4-chlorophenyl)-2-imino-3-methyl-2,3-dihydro-1H-imidazo[4,5-c]quinolin-1-yl)cyclobutyl)piperazin-1-yl)ethan-1-one] |
| 0.0222 | 112 | 20.2 | > 54 | CC(=O)N1CCN(c2nc(C)c(-n3c(=N)n(C)c4cnc5ccc(-c6ccc(Cl)cc6)cc5c43)cc2C#N)CC1 [Compound 130, 2-(4-acetylpiperazin-1-yl)-5-(8-(4-chlorophenyl)-2-imino-3-methyl-2,3-dihydro-1H-imidazo[4,5-c]quinolin-1-yl)-6-methylnicotinonitrile] |
| 0.0549 | 7 | > 30 | 4.6 (≈ 8.15 µM) | CC(=O)NC1CCN(c2cc(C)c(-n3c(=N)n(C)c4cnc5ccc(-c6ccc(Cl)cc6)cc5c43)cc2C#N)CC1 [Compound 132, N-(1-(4-(8-(4-chlorophenyl)-2-imino-3-methyl-2,3-dihydro-1H-imidazo[4,5-c]quinolin-1-yl)-2-cyano-5-methylphenyl)piperidin-4-yl)acetamide] |
| 0.027 | 397 | > 30 | < 1 | Cc1cc(C#N)c(C#N)cc1-n1c(=N)n(C)c2cnc3ccc(-c4ccc(Cl)cc4)cc3c21 [Compound 135, 4-(8-(4-chlorophenyl)-2-imino-3-methyl-2,3-dihydro-1H-imidazo[4,5-c]quinolin-1-yl)-5-methylphthalonitrile] |
| 0.0561 | 89.5 | > 30 | 40.4 (≈ 103 µM) | Cc1ccc(C#N)cc1-n1c(=N)n(C)c2cnc3ccc(-c4cnn(C)c4)cc3c21 [Compound 136, 3-(2-imino-3-methyl-8-(1-methyl-1H-pyrazol-4-yl)-2,3-dihydro-1H-imidazo[4,5-c]quinolin-1-yl)-4-methylbenzonitrile] |
| 0.0432 | 1260 | > 30 | 3.6 (≈ 8.49 µM) | Cc1ccc(C#N)cc1-n1c(=N)n(C)c2cnc3ccc(-c4ccc(Cl)cc4)cc3c21 [Compound 137, 3-(8-(4-chlorophenyl)-2-imino-3-methyl-2,3-dihydro-1H-imidazo[4,5-c]quinolin-1-yl)-4-methylbenzonitrile] |
| 0.374 | 776 | > 30 | > 50 | Cc1nc(N2CCN(C)CC2)c(C#N)cc1-n1c(=N)n(C)c2cnc3ccc(-c4cccc(F)c4)cc3c21 [Compound 143, 5-(8-(3-fluorophenyl)-2-imino-3-methyl-2,3-dihydro-1H-imidazo[4,5-c]quinolin-1-yl)-6-methyl-2-(4-methylpiperazin-1-yl)nicotinonitrile] |
| 0.142 | 1140 | > 30 | 16.7 (≈ 34.2 µM) | Cc1ccc(-c2ccc3ncc4c(c3c2)n(-c2cc(C#N)c(N3CCOCC3)cc2C)c(=N)n4C)cc1 [Compound 145, 5-(2-imino-3-methyl-8-(p-tolyl)-2,3-dihydro-1H-imidazo[4,5-c]quinolin-1-yl)-4-methyl-2-morpholinobenzonitrile] |
| 0.0284 | 656 | 24.4 | 4.3 (≈ 7.68 µM) | COC(=O)/N=c1\n(C)c2cnc3ccc(-c4ccc(C)cc4)cc3c2n1-c1cc(C#N)c(N2CCN(C)CC2)cc1C [Compound 147, Methyl (E)-(1-(5-cyano-2-methyl-4-(4-methylpiperazin-1-yl)phenyl)-3-methyl-8-(p-tolyl)-1,3-dihydro-2H-imidazo[4,5-c]quinolin-2-ylidene)carbamate] |

The remaining lines, values behind:

| SMILES | EC50 [1] [µM] | Papp (PAMPA permeability) [×10⁻⁶ cm/s] | half-life [2] [min] | solubility (Solubility pH 7.4) [µg/mL] |
| --- | --- | --- | --- | --- |
| Cc1ccc(C#N)cc1-n1c(=N)n(C)c2cnc3ccc(-c4ccccc4O)cc3c21 [Compound 86, 3-(8-(2-hydroxyphenyl)-2-imino-3-methyl-2,3-dihydro-1H-imidazo[4,5-c]quinolin-1-yl)-4-methylbenzonitrile] | 0.696 | 7.9 | > 30 | > 40 |
| COC(=O)/N=c1\n(C)c2cnc3ccc(-c4ccc(Cl)cc4)cc3c2n1-c1cc(C#N)ccc1C [Compound 87, methyl (E)-(8-(4-chlorophenyl)-1-(5-cyano-2-methylphenyl)-3-methyl-1,3-dihydro-2H-imidazo[4,5-c]quinolin-2-ylidene)carbamate] | 0.0575 | 95.6 | > 30 | < 1 |
| Cc1ccc(C#N)cc1-n1/c(=N/C(=O)OC(C)(C)C)n(C)c2cnc3ccc(-c4ccc(Cl)cc4)cc3c21 [Compound 88, tert-butyl (E)-(8-(4-chlorophenyl)-1-(5-cyano-2-methylphenyl)-3-methyl-1,3-dihydro-2H-imidazo[4,5-c]quinolin-2-ylidene)carbamate] | 1.62 | 128 | > 30 | < 1 |
| Cc1ccc(C#N)cc1-n1c(=N)n(C)c2cnc3ccc(-c4ccccn4)cc3c21 [Compound 91, 3-(2-imino-3-methyl-8-(pyridin-2-yl)-2,3-dihydro-1H-imidazo[4,5-c]quinolin-1-yl)-4-methylbenzonitrile] | 0.423 | 1370 | > 30 | > 39 |
| Cc1ccc(C#N)cc1-n1/c(=N/S(N)(=O)=O)n(C)c2cnc3ccc(-c4ccc(Cl)cc4)cc3c21 [Compound 100, (8-(4-chlorophenyl)-1-(5-cyano-2-methylphenyl)-3-methyl-1,3-dihydro-2H-imidazo[4,5-c]quinolin-2-ylidene)sulfonamide] | 0.0129 | 236 | > 30 | < 1 |
| Cc1ccc(C#N)cc1-n1c(=N)n(C)c2cnc3ccc(-c4cnc5ccccc5c4)cc3c21 [Compound 105, 3-(2-imino-3-methyl-8-(quinolin-3-yl)-2,3-dihydro-1H-imidazo[4,5-c]quinolin-1-yl)-4-methylbenzonitrile] | 0.714 | 1150 | > 30 | > 44 |
| Cc1ccc(C#N)cc1-n1c(=N)n(C)c2cnc3ccc(-c4ccc(OCCCN(C)C)nc4)cc3c21 [Compound 106, 3-(8-(6-(3-(dimethylamino)propoxy)pyridin-3-yl)-2-imino-3-methyl-2,3-dihydro-1H-imidazo[4,5-c]quinolin-1-yl)-4-methylbenzonitrile] | 0.14 | 1.2 | > 30 | > 49 |
| Cc1ccc(C#N)cc1-n1c(=N)n(C)c2cnc3ccc(-c4ccc5[nH]ncc5c4)cc3c21 [Compound 107, 3-(2-imino-8-(1H-indazol-5-yl)-3-methyl-2,3-dihydro-1H-imidazo[4,5-c]quinolin-1-yl)-4-methylbenzonitrile] | 0.0129 | 22.6 | 22.9 | > 42 |
| Cc1cc(N2CCN(C)CC2)c(C#N)cc1-n1c(=N)n(C)c2cnc3ccc(-c4ccc(Cl)cc4)cc3c21 [Compound 108, 5-(8-(4-chlorophenyl)-2-imino-3-methyl-2,3-dihydro-1H-imidazo[4,5-c]quinolin-1-yl)-4-methyl-2-(4-methylpiperazin-1-yl)benzonitrile] | 0.464 | 255 | > 30 | 37.6 (≈ 72 µM) |
| CC(=O)N1CCN(c2cc(C)c(-n3c(=N)n(C)c4cnc5ccc(-c6ccc(Cl)cc6)cc5c43)cc2C#N)CC1 [Compound 109, 2-(4-acetylpiperazin-1-yl)-5-(8-(4-chlorophenyl)-2-imino-3-methyl-2,3-dihydro-1H-imidazo[4,5-c]quinolin-1-yl)-4-methylbenzonitrile] | 0.00433 | 838 | > 30 | < 1 |
| Cc1cc(N2CCC2)c(C#N)cc1-n1c(=N)n(C)c2cnc3ccc(-c4ccc(Cl)cc4)cc3c21 [Compound 110, 2-(azetidin-1-yl)-5-(8-(4-chlorophenyl)-2-imino-3-methyl-2,3-dihydro-1H-imidazo[4,5-c]quinolin-1-yl)-4-methylbenzonitrile] | 0.373 | 176 | > 30 | < 1 |
| Cc1cc(N2CCCCC2)c(C#N)cc1-n1c(=N)n(C)c2cnc3ccc(-c4ccc(Cl)cc4)cc3c21 [Compound 112, 5-(8-(4-chlorophenyl)-2-imino-3-methyl-2,3-dihydro-1H-imidazo[4,5-c]quinolin-1-yl)-4-methyl-2-(piperidin-1-yl)benzonitrile] | 1.83 | 1280 | > 30 | < 1 |
| Cc1ccc(C#N)cc1-n1/c(=N/S(N)(=O)=O)n(C)c2cnc3ccc(-c4cccc(F)c4)cc3c21 [Compound 116] | 0.0278 | 1070 | 17.9 | < 1 |
| Cc1cc(N2CC3(COC3)C2)c(C#N)cc1-n1c(=N)n(C)c2cnc3ccc(-c4ccc(Cl)cc4)cc3c21 [Compound 121, 5-(8-(4-chlorophenyl)-2-imino-3-methyl-2,3-dihydro-1H-imidazo[4,5-c]quinolin-1-yl)-4-methyl-2-(2-oxa-6-azaspiro[3.3]heptan-6-yl)benzonitrile] | 0.148 | 6.2 | > 30 | 1.3 (≈ 2.5 µM) |
| COC(=O)/N=c1\n(C)c2cnc3ccc(-c4ccc(C)nc4)cc3c2n1-c1cc(C#N)ccc1C [Compound 125, methyl (E)-(1-(5-cyano-2-methylphenyl)-3-methyl-8-(6-methylpyridin-3-yl)-1,3-dihydro-2H-imidazo[4,5-c]quinolin-2-ylidene)carbamate] | 0.0012 | 243 | > 30 | 12.5 (≈ 27 µM) |
